Patent US9487489B2, “Halogen-substituted pyrazole derivatives as pest-control agents” (BAYER CROPSCIENCE AKTIENGESELLSCHAFT, priority 2013, dated 2016)

Legend:
[1] = tested on: adult castor bean ticks (Ixodes ricinus); assay: Ixodes ricinus in vitro contact test with adult castor bean ticks (T3); settings: after 48 h
Method: T3. Ixodes ricinus-in vitro Contact Tests with Adult Castor Bean Ticks
For the coating of the test tubes, initially 9 mg of active compound are dissolved in 1 ml of acetone p.a. and then diluted with acetone p.a. to the desired concentration. By turning and rocking on an orbital shaker (2 h of rocking rotation at 30 rpm), 250 μl of the solution are distributed homogeneously on the internal walls and the floor of a 25 ml test tube. At 900 ppm active compound solution and 44.7 cm^2 internal surface, an area dose of 5 μg/cm^2 is achieved for homogeneous distribution.
After evaporation of the solvent, the tubes are populated with 5-10 adult castor bean ticks (Ixodes ricinus), sealed with a perforated plastic lid and incubated in a horizontal position in the dark at 22° C. and 90% humidity in a climate-controlled cabinet. After 48 h, the efficacy is determined. To this end, the ticks are knocked to the floor of the tube and incubated on a hotplate at 45-50° C. for at most 5 min. Ticks which remain motionless on the floor or move in an uncoordinated manner such that they are not able to deliberately avoid the heat by climbing upwards are considered to be dead or moribund.
An efficacy of 100% means that all ticks were dead or moribund. 0% efficacy means that none of the ticks had been damaged.

[2] = tested on: engorged adult female cattle ticks (Boophilus microplus); assay: Boophilus microplus injection test (BOOPMI Inj); type: in vivo; settings: application rate 20 μg/animal; injection into abdomen; assessed after 7 days
Procedure, shortened: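 DMSO solution of compound (1 μl) injected into the abdomen of 5 engorged adult female ticks, which are then held in a climate-controlled room. After 7 days, efficacy is scored from laying of fertile eggs, with unclear eggs kept until larval hatch (~42 days); 100% means no fertile eggs, 0% all fertile.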

[3] = tested on: adult cat fleas (Ctenocephalides felis); assay: Ctenocephalides felis in vitro contact test with adult cat fleas (T1); settings: after 48 h
Procedure, shortened: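 Test compound was dissolved in acetone p.a. (9 mg per 1 ml) and diluted as needed. 250 μl was spread evenly over the inner walls and floor of a 25 ml test tube by rotating on an orbital shaker for 2 h at 30 rpm. Once the solvent evaporated, 5-10 adult Ctenocephalides felis were added. Tubes were capped with a perforated plastic lid and kept horizontal at room temperature and ambient humidity.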

[4] = tested on: adult houseflies (Musca domestica); assay: Musca domestica test (MUSCDO); type: in vivo; settings: application rate 100 ppm; after 2 days
Procedure, shortened: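 Compound dissolved in DMSO and diluted with water to the test concentration, applied with sugar solution on a sponge; 10 adult houseflies per vessel. Mortality scored after 2 days as % kill (100% all dead, 0% none).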

[5] = tested on: adult cat fleas (Ctenocephalides felis); assay: Ctenocephalides felis oral test (CTECFE); type: in vivo; settings: application rate 100 ppm in citrated cattle blood; after 2 days
Procedure, shortened: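 About 20 unfed adult cat fleas fed through parafilm membrane on citrated cattle blood containing compound (DMSO stock diluted in blood to test concentration). Kill % scored after 2 days (100% = all fleas dead).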

[6] = tested on: cattle ticks (Boophilus microplus) Parkhurst strain, SP-resistant; assay: Boophilus microplus dip test (BOOPMI Dip); type: in vivo; settings: application rate 100 ppm, assessed after 7 days
Procedure, shortened: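 Adult engorged female SP-resistant Parkhurst ticks (8–10) were fully immersed in compound diluted in water from a DMSO solution, then kept in a climate-controlled room. After 7 days, fertile egg-laying was scored, with larval hatching checked at about 42 days; 100% efficacy means no fertile eggs.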

[7] = tested on: L1 larvae of the Australian sheep blowfly (Lucilia cuprina); assay: Lucilia cuprina test (LUCICU); type: in vivo; settings: application rate 100 ppm; after 2 days
Procedure, shortened: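 About 20 L1 larvae placed in a vessel with minced horsemeat plus compound (DMSO concentrate diluted with water to the desired concentration). Kill in % scored after 2 days, 100% meaning all larvae dead.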

[8] = tested on: bont tick nymphs (Amblyomma hebraeum); settings: after 48 h
[9] = tested on: adult dog ticks (Rhipicephalus sanguineus); assay: Rhipicephalus sanguineus in vitro contact test with adult brown dog ticks (T2); settings: after 48 h
Procedure, shortened: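 Acetone solutions coated onto test tube walls and floor, giving 5 μg/cm^2 at 900 ppm. Five to ten adult ticks held per tube in the dark at room temperature for 48 h, then heated at 45-50° C for up to 5 min; efficacy is the percentage of dead or moribund ticks unable to climb away.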

[10] = tested on: greenhouse red spider mite (Tetranychus urticae); assay: Tetranychus urticae spray test, OP-resistant (TETRUR); type: in vivo; settings: bean leaf discs, after 6 days
Procedure, shortened: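 Bean leaf discs carrying all stages of OP-resistant Tetranychus urticae were sprayed with compound formulated in acetone/dimethylformamide and diluted in water with 1000 ppm alkylaryl polyglycol ether emulsifier. Mortality (% efficacy, 100% = all mites killed) scored after 6 days.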

[11] = tested on: green peach aphid (Myzus persicae); assay: Myzus persicae spray test (MYZUPE); type: in vivo; settings: Chinese cabbage leaf discs, after 6 days
Procedure, shortened: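 Chinese cabbage leaf discs infested with all aphid stages sprayed with compound in acetone/DMF with alkylaryl polyglycol ether emulsifier in water. Efficacy (% aphids killed; 100% all dead, 0% none) scored after 6 days.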

[12] = tested on: caterpillars of the armyworm (Spodoptera frugiperda); assay: Spodoptera frugiperda spray test (SPODFR); type: in vivo; settings: maize leaf discs, after 7 days
Procedure, shortened: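 Maize leaf discs sprayed with compound in acetone/DMF with alkylaryl polyglycol ether emulsifier (1000 ppm) in water, dried, then infested with armyworm caterpillars. Mortality (%) scored after 7 days; 100% = all caterpillars killed, 0% = none killed.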

[13] = tested on: larvae of the mustard beetle (Phaedon cochleariae); assay: Phaedon cochleariae spray test (PHAECO); type: in vivo; settings: Chinese cabbage leaf discs, after 7 days
Procedure, shortened: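 Compound dissolved in acetone/dimethylformamide with alkylaryl polyglycol ether emulsifier, made up in water containing 1000 ppm emulsifier, then diluted to test concentrations and sprayed against mustard beetle larvae. Efficacy (% larvae killed) scored after 7 days.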

[14] = logP determination by HPLC on a reversed-phase column (C18), EEC Directive 79/831 Annex V.A8; type: physicochemical
Procedure, shortened: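 Retention on a C18 reversed-phase column (Zorbax Eclipse Plus, 1.8 micron) was used, eluting with acetonitrile/water, each containing formic acid. The gradient ran from 10% to 95% acetonitrile over 4.25 min, then held 1.25 min, at 55° C and 2.0 ml/min, with MS detection.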

Compound	efficacy (dead or moribund ticks) ([1]; application rate 1 μg/cm^2)	efficacy (dead or moribund ticks) ([1]; application rate 5 μg/cm^2)	efficacy (laying of fertile eggs) [2]	efficacy (dead or moribund fleas) ([3]; application rate 1 μg/cm^2)	efficacy (dead or moribund fleas) ([3]; application rate 5 μg/cm^2)	efficacy (kill in %) [4]	efficacy (kill in %) [5]	efficacy (laying of fertile eggs) [6]	efficacy (kill in %) [7]	efficacy (dead or moribund ticks) [8]	efficacy (dead or moribund ticks) ([9]; application rate 1 μg/cm^2)	efficacy (dead or moribund ticks) ([9]; application rate 5 μg/cm^2)	efficacy in % ([10]; application rate 500 g/ha)	efficacy in % ([11]; application rate 500 g/ha)	efficacy in % ([12]; application rate 500 g/ha)	efficacy in % ([13]; application rate 500 g/ha)	efficacy in % ([12]; application rate 100 g/ha)	efficacy in % ([13]; application rate 100 g/ha)	efficacy in % ([10]; application rate 100 g/ha)	efficacy in % ([11]; application rate 100 g/ha)	also measured
COc1ncc(-c2cnn(-c3c(C(F)(F)F)c(C(F)(F)C(F)(F)F)nn3C)c2)cc1C(=O)NC1CC1 [Ic-86]	80%	100%	100%	100%	100%	100%	100%	100%	100%	100%	100%	100%	100%	100%	100%	100%	–	–	–	–	–
Cn1nc(C(F)(F)C(F)(F)F)c(C(F)(F)F)c1-n1cc(-c2cccc(C(=O)NC3CC3)c2)cn1 [Ic-18]	–	80%	100%	100%	100%	100%	100%	–	100%	100%	100%	100%	–	–	–	–	100%	100%	–	–	logP ([14]; HPLC on reversed-phase column (C18), acetonitrile/water with formic acid, EEC Directive 79/831 Annex V.A8): 3.66
Cn1nc(C(F)(F)C(F)(F)F)c(C(F)(F)F)c1-n1cnc(-c2ccc(Cl)c(C(=O)NC3(C#N)CC3)c2)c1 [Ib-2]	–	–	100%	100%	100%	100%	100%	100%	100%	100%	–	–	–	–	–	–	100%	100%	100%	90%	logP ([14]; HPLC, reversed-phase C18, acetonitrile (0.1% formic acid)/water (0.09% formic acid) gradient): 3.38
COc1ncc(-c2cnn(-c3c(C(F)(F)F)c(C(F)(F)C(F)(F)F)nn3C)c2)cc1C(=O)NC1(C#N)CC1 [Ic-87]	80%	100%	100%	100%	100%	100%	100%	–	100%	100%	100%	100%	100%	–	100%	100%	–	–	–	90%	–
Cn1nc(C(F)(F)C(F)(F)F)c(C(F)(F)F)c1-n1cc(-c2cc(C(=O)NC3(C#N)CC3)c(F)cc2Cl)cn1 [Ic-48]	80%	100%	100%	100%	100%	100%	100%	80%	100%	100%	100%	100%	–	–	100%	100%	–	–	90%	90%	–
Cc1cc(-c2cnn(-c3c(C(F)(F)F)c(C(F)(F)C(F)(F)F)nn3C)c2)cc(C(=O)NC2CC2)c1Cl [Ic-90]	100%	100%	100%	100%	100%	100%	100%	100%	100%	100%	100%	100%	90%	100%	100%	100%	–	–	–	–	–
